Holding throughout (test): biochemical
Holding throughout (parameters): DiscoverX KINOMEscan scanMAX competition binding panel, single concentration, percent of control; remaining binding: dose or concentration left out as unconfirmed
Common to all, as to details: KINOMEscan binding, percent of control; read-out: Table S4_SCANMAX REPORT - related to Fig. 1 / Percent Control

For experiment [1], the target named is HASPIN (Homo sapiens, UniProt Q8TF76).
Experiment [2] concerns the target PKN1 (Homo sapiens, UniProt Q16512).
The target in experiment [3] is RIPK1 (Homo sapiens, UniProt Q13546).
Experiment [4] deals with T1, MINK (Homo sapiens, UniProt Q8N4C8).
T1 construct: gene MINK1

For experiment [5], the target named is SRPK1 (Homo sapiens, UniProt Q96SB4).
The target of experiment [6] is T2, ABL1(M351T)-phosphorylated (Homo sapiens, UniProt P00519, M351T).
T2 construct: phosphorylated

Experiment [7] deals with ROS1 (Homo sapiens, UniProt P08922).
Experiment [8] has as its target EPHA7 (Homo sapiens, UniProt Q15375).
Experiment [9] concerns the target T3, CDK4-cyclinD1 (Homo sapiens, UniProt P11802).
T3 construct: cyclinD1

In experiment [10] the target is CSK (Homo sapiens, UniProt P41240).
The target in experiment [11] is T4, ABL1(F317I)-nonphosphorylated (Homo sapiens, UniProt P00519, F317I).
T4 construct: nonphosphorylated

Experiment [12] addresses MAP3K3 (Homo sapiens, UniProt Q99759).
Experiment [13] concerns the target ERBB3 (Homo sapiens, UniProt P21860).
In experiment [14] the target is T5, GCN2(Kin.Dom.2,S808G) (Homo sapiens, UniProt Q9P2K8, S808G).
T5 construct: gene EIF2AK4; Kin.Dom.2

The target in experiment [15] is PIK3C2G (Homo sapiens, UniProt O75747).
In experiment [16] the target is EPHA8 (Homo sapiens, UniProt P29322).
Experiment [17] has as its target ERBB4 (Homo sapiens, UniProt Q15303).
For experiment [18], the target named is T6, RPS6KA5(Kin.Dom.2-C-terminal) (Homo sapiens, UniProt O75582).
T6 construct: Kin.Dom.2-C-terminal
T6 sequence (O75582 whole entry): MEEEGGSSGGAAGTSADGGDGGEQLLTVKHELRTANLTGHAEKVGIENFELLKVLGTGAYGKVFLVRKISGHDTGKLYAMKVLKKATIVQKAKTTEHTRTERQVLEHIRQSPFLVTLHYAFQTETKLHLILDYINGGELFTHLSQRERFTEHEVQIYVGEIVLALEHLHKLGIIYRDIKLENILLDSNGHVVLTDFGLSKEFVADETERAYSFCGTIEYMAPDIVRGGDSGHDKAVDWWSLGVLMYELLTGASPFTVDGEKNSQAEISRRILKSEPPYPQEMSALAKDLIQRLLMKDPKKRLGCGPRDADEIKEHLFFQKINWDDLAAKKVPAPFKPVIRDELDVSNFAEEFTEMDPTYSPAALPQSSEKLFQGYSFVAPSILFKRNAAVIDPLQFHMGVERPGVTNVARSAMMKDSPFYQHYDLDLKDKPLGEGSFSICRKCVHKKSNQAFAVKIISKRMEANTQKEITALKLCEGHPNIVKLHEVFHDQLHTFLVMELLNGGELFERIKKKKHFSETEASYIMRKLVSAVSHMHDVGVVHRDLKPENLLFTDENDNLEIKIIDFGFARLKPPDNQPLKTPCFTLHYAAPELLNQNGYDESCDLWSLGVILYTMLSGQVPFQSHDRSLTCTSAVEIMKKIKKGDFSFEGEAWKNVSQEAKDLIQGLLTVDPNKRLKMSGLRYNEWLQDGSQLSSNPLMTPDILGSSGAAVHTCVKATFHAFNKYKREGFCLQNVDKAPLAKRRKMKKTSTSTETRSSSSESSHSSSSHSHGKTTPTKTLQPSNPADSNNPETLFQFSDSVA

EPHA7, sequence (Q15375 whole entry): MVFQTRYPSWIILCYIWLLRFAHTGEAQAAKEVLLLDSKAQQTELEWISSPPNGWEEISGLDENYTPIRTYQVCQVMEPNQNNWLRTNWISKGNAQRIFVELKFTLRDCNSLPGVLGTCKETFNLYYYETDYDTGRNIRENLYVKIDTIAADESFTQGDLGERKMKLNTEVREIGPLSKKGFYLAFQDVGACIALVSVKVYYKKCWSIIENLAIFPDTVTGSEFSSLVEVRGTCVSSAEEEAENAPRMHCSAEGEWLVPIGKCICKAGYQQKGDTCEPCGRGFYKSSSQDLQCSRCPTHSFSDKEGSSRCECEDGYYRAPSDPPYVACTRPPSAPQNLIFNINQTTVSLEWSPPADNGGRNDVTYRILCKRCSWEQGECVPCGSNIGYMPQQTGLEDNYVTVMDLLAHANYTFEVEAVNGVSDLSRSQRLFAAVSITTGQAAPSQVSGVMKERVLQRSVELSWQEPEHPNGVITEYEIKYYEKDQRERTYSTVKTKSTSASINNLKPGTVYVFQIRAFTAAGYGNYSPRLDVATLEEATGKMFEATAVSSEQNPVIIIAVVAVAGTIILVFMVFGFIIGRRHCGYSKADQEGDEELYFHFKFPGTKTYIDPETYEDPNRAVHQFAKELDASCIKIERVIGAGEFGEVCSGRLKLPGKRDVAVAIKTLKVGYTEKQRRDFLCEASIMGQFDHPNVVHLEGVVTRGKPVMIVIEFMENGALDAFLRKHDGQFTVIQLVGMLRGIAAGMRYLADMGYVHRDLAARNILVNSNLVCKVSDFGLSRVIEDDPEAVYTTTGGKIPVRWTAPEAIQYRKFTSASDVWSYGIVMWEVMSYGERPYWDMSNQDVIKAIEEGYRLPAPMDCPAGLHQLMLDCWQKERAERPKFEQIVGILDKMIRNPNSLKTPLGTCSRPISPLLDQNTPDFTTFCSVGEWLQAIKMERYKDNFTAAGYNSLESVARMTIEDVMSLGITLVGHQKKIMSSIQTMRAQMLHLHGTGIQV
SRPK1, sequence (Q96SB4 whole entry): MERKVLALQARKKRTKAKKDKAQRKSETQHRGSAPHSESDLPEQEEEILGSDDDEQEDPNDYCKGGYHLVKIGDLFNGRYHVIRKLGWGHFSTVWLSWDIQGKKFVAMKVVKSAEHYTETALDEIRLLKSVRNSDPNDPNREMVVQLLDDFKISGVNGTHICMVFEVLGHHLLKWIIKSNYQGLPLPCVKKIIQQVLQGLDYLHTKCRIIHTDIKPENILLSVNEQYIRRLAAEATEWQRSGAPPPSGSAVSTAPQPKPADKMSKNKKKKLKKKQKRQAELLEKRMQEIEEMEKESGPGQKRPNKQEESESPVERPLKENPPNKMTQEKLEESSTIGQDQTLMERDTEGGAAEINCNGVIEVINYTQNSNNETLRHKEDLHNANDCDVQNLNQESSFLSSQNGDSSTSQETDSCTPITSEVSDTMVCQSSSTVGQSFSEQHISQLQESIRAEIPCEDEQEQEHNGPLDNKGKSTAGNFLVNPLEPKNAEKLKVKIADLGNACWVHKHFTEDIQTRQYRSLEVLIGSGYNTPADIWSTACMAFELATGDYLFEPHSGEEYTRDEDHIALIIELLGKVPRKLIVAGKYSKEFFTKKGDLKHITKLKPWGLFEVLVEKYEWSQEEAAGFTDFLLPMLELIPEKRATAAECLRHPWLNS
T3 sequence (P11802 whole entry): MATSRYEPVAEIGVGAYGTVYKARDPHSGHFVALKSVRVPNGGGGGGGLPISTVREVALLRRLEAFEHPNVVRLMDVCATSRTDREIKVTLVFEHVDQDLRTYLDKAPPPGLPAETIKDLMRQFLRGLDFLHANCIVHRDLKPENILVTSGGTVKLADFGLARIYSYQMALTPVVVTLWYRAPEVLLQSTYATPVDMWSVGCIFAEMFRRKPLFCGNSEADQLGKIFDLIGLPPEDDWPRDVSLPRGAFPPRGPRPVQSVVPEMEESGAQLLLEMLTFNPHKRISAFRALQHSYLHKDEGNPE
T3 sequence (P24385 whole entry partner): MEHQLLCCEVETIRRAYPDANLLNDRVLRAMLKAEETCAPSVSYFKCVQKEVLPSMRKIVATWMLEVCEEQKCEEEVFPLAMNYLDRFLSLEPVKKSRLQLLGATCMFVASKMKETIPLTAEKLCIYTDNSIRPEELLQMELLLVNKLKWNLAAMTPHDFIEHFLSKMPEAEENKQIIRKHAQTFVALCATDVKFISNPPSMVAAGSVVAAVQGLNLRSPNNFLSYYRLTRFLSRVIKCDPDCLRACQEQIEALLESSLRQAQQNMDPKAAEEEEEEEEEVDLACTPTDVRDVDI
PIK3C2G, sequence (O75747 whole entry): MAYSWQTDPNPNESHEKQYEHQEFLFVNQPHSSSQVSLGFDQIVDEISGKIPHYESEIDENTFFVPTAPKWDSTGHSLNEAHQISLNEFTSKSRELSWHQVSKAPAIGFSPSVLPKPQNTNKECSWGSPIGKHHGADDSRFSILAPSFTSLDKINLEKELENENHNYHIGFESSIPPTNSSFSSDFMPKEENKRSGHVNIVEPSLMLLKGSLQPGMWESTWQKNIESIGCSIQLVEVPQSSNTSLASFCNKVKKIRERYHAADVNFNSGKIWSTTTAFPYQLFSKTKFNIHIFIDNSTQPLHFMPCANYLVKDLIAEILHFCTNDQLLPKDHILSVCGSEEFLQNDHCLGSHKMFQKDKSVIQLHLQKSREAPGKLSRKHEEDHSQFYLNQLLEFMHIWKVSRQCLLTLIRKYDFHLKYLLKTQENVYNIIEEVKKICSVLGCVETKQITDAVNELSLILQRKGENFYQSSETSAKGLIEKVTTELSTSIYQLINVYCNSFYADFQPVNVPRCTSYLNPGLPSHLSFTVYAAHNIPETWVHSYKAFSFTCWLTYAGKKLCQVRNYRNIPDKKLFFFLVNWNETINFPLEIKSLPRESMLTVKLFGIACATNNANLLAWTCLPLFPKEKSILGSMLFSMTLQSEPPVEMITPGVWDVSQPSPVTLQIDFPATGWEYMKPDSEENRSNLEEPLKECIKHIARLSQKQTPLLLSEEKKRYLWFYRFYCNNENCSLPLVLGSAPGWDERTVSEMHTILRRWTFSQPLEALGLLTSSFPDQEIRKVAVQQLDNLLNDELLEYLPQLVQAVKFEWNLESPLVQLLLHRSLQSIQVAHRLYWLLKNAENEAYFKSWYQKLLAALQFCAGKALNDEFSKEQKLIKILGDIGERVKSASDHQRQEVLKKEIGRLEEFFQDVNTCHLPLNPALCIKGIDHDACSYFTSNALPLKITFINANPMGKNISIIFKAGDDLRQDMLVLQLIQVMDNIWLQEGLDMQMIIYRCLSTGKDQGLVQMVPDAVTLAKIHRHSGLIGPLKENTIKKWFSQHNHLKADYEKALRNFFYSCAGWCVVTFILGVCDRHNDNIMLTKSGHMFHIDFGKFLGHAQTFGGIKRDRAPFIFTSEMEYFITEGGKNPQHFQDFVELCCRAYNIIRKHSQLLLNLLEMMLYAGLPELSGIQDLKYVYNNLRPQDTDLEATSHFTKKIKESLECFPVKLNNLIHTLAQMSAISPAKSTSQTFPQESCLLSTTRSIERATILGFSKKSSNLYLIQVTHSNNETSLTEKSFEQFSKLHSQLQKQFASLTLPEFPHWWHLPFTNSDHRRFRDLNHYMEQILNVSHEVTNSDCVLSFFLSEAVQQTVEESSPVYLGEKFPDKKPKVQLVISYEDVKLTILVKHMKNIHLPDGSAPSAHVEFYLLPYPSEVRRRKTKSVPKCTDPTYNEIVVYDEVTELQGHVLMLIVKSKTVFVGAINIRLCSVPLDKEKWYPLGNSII
CSK, sequence (P41240 whole entry): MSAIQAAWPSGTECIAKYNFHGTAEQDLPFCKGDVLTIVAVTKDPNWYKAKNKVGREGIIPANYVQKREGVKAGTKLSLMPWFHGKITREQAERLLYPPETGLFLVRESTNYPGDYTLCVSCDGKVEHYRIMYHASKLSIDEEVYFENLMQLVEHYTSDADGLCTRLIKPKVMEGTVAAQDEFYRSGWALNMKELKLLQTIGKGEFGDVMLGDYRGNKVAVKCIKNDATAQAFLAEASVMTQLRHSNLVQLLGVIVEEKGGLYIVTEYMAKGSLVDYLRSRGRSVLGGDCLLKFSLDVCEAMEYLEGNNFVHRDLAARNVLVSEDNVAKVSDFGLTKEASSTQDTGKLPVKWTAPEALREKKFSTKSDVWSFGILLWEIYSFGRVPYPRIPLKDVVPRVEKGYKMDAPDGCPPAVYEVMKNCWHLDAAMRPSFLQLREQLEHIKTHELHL

As to `c1ccc2c(c1)Sc1ccccc1N2CCN1CCOCC1` [J54], the remaining binding was determined as 94% in experiment [1]; 100% in experiment [2]; 84% in experiment [3]; 100% in experiment [4]; 100% in [5]; 100% in experiment [6]. Besides, the remaining binding in experiment [7] stood at 100%; in experiment [8], 100%; in experiment [9], 36%; in [10], 100%; in experiment [11], 92%; in experiment [12], 100%. Besides, the remaining binding was determined as 78% in experiment [13]; 100% in experiment [14]; 74% in [15]; 100% in experiment [16]; 100% in [17]; 100% in experiment [18].
